Literature values in patent US9889198B2 (KemPharm, Inc., priority 2010, dated 2018).

Tests used:
human NET = human NET (Homo sapiens, UniProt P23975); settings: relative to quetiapine
5-HT1A receptor = target: T1, 5-HT1A receptor (Homo sapiens, UniProt P08908); settings: relative to quetiapine
T1 sequence (P08908 1-422): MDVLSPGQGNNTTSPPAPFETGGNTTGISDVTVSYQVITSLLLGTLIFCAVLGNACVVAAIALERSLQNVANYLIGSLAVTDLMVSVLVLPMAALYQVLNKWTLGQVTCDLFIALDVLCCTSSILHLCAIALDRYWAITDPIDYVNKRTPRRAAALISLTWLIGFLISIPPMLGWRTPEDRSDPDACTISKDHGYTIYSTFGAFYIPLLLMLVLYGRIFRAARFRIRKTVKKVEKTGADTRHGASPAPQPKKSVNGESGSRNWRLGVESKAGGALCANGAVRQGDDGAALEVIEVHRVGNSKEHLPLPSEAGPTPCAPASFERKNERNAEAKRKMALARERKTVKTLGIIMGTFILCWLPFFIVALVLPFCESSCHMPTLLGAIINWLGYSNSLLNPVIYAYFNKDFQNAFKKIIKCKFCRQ

leptin release = settings: chronic oral administration, 6 weeks

Chain of human NET (P23975 whole entry): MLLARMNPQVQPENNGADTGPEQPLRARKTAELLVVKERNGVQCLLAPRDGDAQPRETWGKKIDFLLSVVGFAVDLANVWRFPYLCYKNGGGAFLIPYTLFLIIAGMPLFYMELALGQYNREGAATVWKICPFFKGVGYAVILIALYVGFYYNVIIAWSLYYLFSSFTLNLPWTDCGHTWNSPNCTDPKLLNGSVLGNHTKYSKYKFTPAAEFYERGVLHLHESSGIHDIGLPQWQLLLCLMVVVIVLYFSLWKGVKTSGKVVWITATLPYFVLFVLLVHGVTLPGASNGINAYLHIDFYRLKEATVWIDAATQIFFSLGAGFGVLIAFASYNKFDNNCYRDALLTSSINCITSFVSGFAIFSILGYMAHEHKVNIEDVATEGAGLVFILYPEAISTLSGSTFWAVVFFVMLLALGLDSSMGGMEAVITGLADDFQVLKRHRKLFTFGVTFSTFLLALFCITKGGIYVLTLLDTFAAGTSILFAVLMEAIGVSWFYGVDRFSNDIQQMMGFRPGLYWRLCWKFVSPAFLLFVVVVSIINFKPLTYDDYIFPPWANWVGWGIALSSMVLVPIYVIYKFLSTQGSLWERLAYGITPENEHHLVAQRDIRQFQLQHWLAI

c1ccc2c(c1)N=C(N1CCNCC1)c1ccccc1S2 [N-desalkyl-quetiapine]
higher avidity for inhibiting human NET than quetiapine (human NET): about 100 fold
more potent than quetiapine at the 5-HT1A receptor (5-HT1A receptor): 10 fold

CCCC(CCC)C(=O)O [Valproic acid, 2-propylpentanoic acid]
response rate in acute mania (acute mania patients): around 50%
response rate in bipolar depression (bipolar depression): ~30%

OCCOCCN1CCN(C2=Nc3ccccc3Sc3ccccc32)CC1 [quetiapine, 2-(2-(4-(dibenzo[b,f][1,4]thiazepin-11-yl)piperazin-1-yl)ethoxy)ethanol]
increase in leptin release (leptin release): about 37%
